The source of these data is a melting point compilation (Tetko et al.; mined from patent text by program, amines drawn as free bases though some values may be those of a salt).

The melting point is the temperature, or range, at which the solid turns liquid.

Take `NCCCNC(=O)c1ccc(-c2nn(-c3ccc(C(=O)O)cc3)c3ccccc23)cc1`: the melting point lay in the range of 285 to 288 °C.
For `CS(=O)(=O)Nc1ccc([N+](=O)[O-])cc1OC1CCCCC1`, the melting point lay in the range of 136 to 137 °C.
In turn, `CC(OC(C)c1ncn2c1CN(C)C(=O)c1cc(Cl)ccc1-2)c1ncn2c1CN(C)C(=O)c1cc(Cl)ccc1-2` (configuration not stated) came in with a melting point of 193 to 194 °C.
In the case of `CC(C)c1nc(N)oc1-c1ccc(F)c2ccccc12`, the melting point was 141 °C.
In turn, `NC(=O)C(NC(=O)OCc1ccccc1)c1ccc(CC2CC2)[nH]1` (configuration not stated) had a melting point of 184 to 185 °C.
For the molecule `CCCCn1c(=O)c2c(ncn2S(=O)(=O)c2c(C)cc(C)cc2C)n(CCCC)c1=O`, the melting point is 125 to 127 °C.
Take `Cc1nc2c(N)nc3ccccc3c2n1CCCCS(C)(=O)=O`: the melting point was 206 to 209 °C.
In turn, `COc1cc(OC)cc(N2CCN(C(=O)N(C)c3nc4ccccc4nc3OC)CC2)c1` gave a melting point of 143 to 144 °C.
Take `CCN(CC)C(=O)Oc1cc(-c2ccccc2)c2ccccc2n1`: the melting point was determined as 64 °C.
Molecule `CN1C(=O)Cc2cscc2S1(=O)=O` came in with a melting point of 148 to 149 °C.
For `O=C(CCCCc1cc(O)c(O)c([N+](=O)[O-])c1)NC12CC3CC(CC(C3)C1)C2`, the melting point fell in the range of 157 to 160 °C.
As for `CCCc1c(OCc2ccc(C(=O)NCCCCc3cccnc3)cc2)ccc(C(C)=O)c1O`, the melting point was 91 to 95 °C.
With `CCOC(=O)C(=Cc1cccn2cc(Br)nc12)N=[N+]=[N-]`, the melting point was in the range of 149 to 151 °C.
`O=C(c1ccccc1)n1c2c(c3ccccc31)CC(C(=O)O)(C(=O)O)CC2` came in with a melting point of 160 °C.
For the molecule `CNc1ccc(C2=NCCO2)cc1`, the melting point is 102 to 105 °C.
Molecule `Clc1ccc(-c2cc(-c3ccccc3)c(-c3ccccc3)s2)cc1Cl` registered a melting point of 101 to 103 °C.
`CC(=O)Nc1ccc(NC(C)=O)c2c1C(=O)c1ccccc1C2=O`: the melting point was in the range of 278 to 280 °C.
The same measure for `CC(C)(C)Sc1c(CC(C)(C)C(=O)O)n(Cc2ccc(Cl)cc2)c2ccc(OCc3cnccn3)cc12`: 173 to 175 °C; for `c1cc(-c2ccc(-c3cn([C@H]4CN5CCC4CC5)nn3)s2)ccc1CN1CCCCC1`: 230 °C.
Molecule `Cc1cc(C)c2nn3c(SCc4ccccc4)nc(N)nc3c2n1` gave a melting point of 263 to 265 °C.
Take `O=C(COc1ccc(-c2ccccc2-c2nn[nH]n2)cc1)C1CC1`: the melting point was in the range of 184 to 185 °C.
The same measure for `CCCCC(=O)Nc1ccc(C2=N[C@H]3CCN(C)C[C@H]3c3cc(OC)c(OC)cc32)cc1` (relative stereo): 230 to 235 °C.
Take `Cc1cc(CCC2CCC(COc3ccc(C4=NCCO4)cc3)CC2)on1` (configuration not stated): the melting point lay in the range of 48 to 50 °C.
In turn, `CCOC(=O)c1cc2c(OC)cc3c(c2[nH]1)CCCC3` came in with a melting point of 202 to 203 °C.
As to `COC(=O)c1ccc(/C=C/c2cc3c(cc2CCCO)C(C)(C)CCC3(C)C)cc1`, the melting point is 109 to 116 °C.
`COc1ccc(Nc2ccc(C(=O)O)cc2)c2ccccc12` returned a melting point of 153 to 154 °C.
The same measure for `CCOc1cc2c(cc1OC)C(c1ccc(C(=O)OC)cc1)=N[C@@H]1CCOC[C@H]21`: 141 to 143 °C; for `CS(=O)(=O)OCCOc1ccccc1OCC1CC1`: 90 to 91 °C; for `CCCCCCCCCCCCS(=O)(=O)Nc1cc(C(=O)Nc2ccccc2)ccc1OC`: 156 to 157 °C.
`CCn1cc(C2(c3cccc(-c4cncc(F)c4)c3)N=C(N)N(C)C2=O)cn1` (configuration not stated) yielded a melting point of 216 to 220 °C.
Turning to `CC1(C)C=C(N2CCCS2(=O)=O)c2cc(S(C)(=O)=O)ccc2O1`, the melting point lay within 226 to 227 °C.
The molecule `COc1ccccc1C(C)(O)c1ocnc1C` (configuration not stated) displayed a melting point of 74 to 75 °C.
`Cc1oc(-c2ccccc2)nc1COc1ccc(OCc2ncccc2CC#N)cc1`: the melting point lay within 134 to 135 °C.
Molecule `OC1CCN(c2ncc(-c3cccc(Cl)c3)cn2)CC1` displayed a melting point of 160 to 162 °C.
The same measure for `CN(C(=O)c1ccc2c(c1)nc(NC(=O)c1cccs1)n2CCCOC(=O)c1cccs1)C1CCCCC1`: 92 to 94 °C.
In the case of `NC(=O)c1cc([N+](=O)[O-])ccc1SSc1ccc([N+](=O)[O-])cc1C(N)=O`, the melting point is 266 to 269 °C.
On to `CC1Cc2cccc(Cl)c2C1=O` (configuration not stated), for which the melting point was in the range of 42 to 43 °C.
Consider `CC(C)n1nc(OS(=O)(=O)C(F)(F)F)ccc1=O`, for which the melting point was in the range of 45 to 46 °C.
The same measure for `CCCCCCCCNC(=O)OCc1ccccc1[N+](=O)[O-]`: 70 to 71 °C; for `CCOc1ccc(F)cc1OCCN1C(=O)c2ccccc2C1=O`: 119 to 121 °C; for `Cc1nc2n(c(=O)c1CCN1CCC(c3noc4ccccc34)CC1)CCCC2`: 183 °C.
As for `C=C(C1=C(CCC(=O)OC)C(=O)CC1OCc1ccc(Cl)cc1)c1ccccc1` (configuration not stated), the figure is 114 to 115 °C.
`CCCCCCCCCCOc1ccc2cc(C#CC(C)O)ccc2c1` (configuration not stated) came in with a melting point of 74 to 75 °C.
For the molecule `OCCN1CCN(CC2CCn3c(nc4ccccc43)S2)CC1` (configuration not stated), the melting point was 68 to 70 °C.
Take `CC1(C)C(=O)C(C)(C)c2cc3[nH]c(S(=O)Cc4ccccn4)nc3cc21` (configuration not stated): the melting point lay within 201 to 203 °C.
As for `COc1cc2c(c(OC(C)=O)c1)C1CCC3(C)C(OC)CCC3C1CC2` (configuration not stated), the figure is 81 to 83 °C.
The same measure for `CC(C)CCCC(NC(=O)OC(C)(C)C)c1nc(-c2cccc(Br)c2)c[nH]1` (configuration not stated): 134 to 136 °C.
On to `CCNc1nc(S(C)=O)ncc1C(=O)OCC` (configuration not stated), for which the melting point was in the range of 54 to 56 °C.
Consider `O=C(N1CCN(c2ncccn2)CC1)N1CC(Oc2cccc(C(F)(F)F)c2)C1`, for which the melting point lay within 127 to 128 °C.
As for `c1ccc2c(c1)CCc1c-2n[nH]c1-c1ccncc1`, the figure is 229 °C.
`Cc1nc(-c2ccc(Cl)cc2)oc1COC(C)(C)C(=O)O` returned a melting point of 166 to 167 °C.
As for `c1ccc(C(OC2CCN(CCCOc3ccc(-c4nnn[nH]4)cc3)CC2)c2ccccc2)cc1`, the figure is 167 to 171 °C.
`COc1cc(Nc2c(C#N)cnc3cc(C#CCCN4CCNCC4)c(OC)cc23)c(Cl)cc1Cl` yielded a melting point of 188 to 190 °C.
`BrCCON=C1c2ccccc2-n2cccc21`: the melting point came to 65 °C.
On to `Cc1cc(-c2cccc([N+](=O)[O-])c2)nnc1N(C)N`, for which the melting point fell in the range of 173 to 174 °C.
`CCOC(=O)c1cnoc1-c1cc(Cl)cc(Cl)c1` yielded a melting point of 50 to 51 °C.
`Cc1cccc(-c2cn(C)cc(-c3cccc(C(F)(F)F)c3)c2=S)c1` displayed a melting point of 193 to 196 °C.
As for `CCCCCCCCCCCCCCCCCCOc1cc(OCCC[PH](=O)OCC)cc(N(CC(=O)O)CC(=O)O)c1` (configuration not stated), the melting point was 105 to 108 °C.
Turning to `CCCCN(C)CCc1ccc(Nc2ncc3c(n2)-c2ccccc2C(c2ccccc2C(F)(F)F)C3)cc1` (configuration not stated), the melting point lay within 80 to 82 °C.
The same measure for `COC1=C(OC)C(=O)C(CCCCCCCCCCCOC(C)=O)=C(C)C1=O`: 41 °C; for `CCCc1cc(=O)oc2cc(O)ccc12`: 135 to 137 °C.
For `c1cncc(CSc2nnc(-c3ccc4c(c3)CCO4)o2)c1`, the melting point was in the range of 118 to 122 °C.
For the molecule `COC(=O)C1(Sc2cc(N=c3sc(=O)n4n3CCCC4)c(F)cc2Cl)CC1`, the melting point turned out to be 149 °C.
`CN(c1ccc(S(C)(=O)=O)cc1)S(=O)(=O)c1cccc(NC(=O)c2ccc(S(C)=O)cc2)c1` (configuration not stated): the melting point was 184 to 186 °C.
In turn, `O=C(NC1CCN(CCc2cccc3ccccc23)CC1)c1ccccc1` came in with a melting point of 160 to 162 °C.
In the case of `Cc1ccc(C(=O)Nc2ccc(C#N)cc2)cc1Nc1ncc(-c2cccnc2)o1`, the melting point was found to be 203 °C.
Take `CCC1C(C)=NN=C(c2ccc(O)c(OC)c2)c2cc(OC)c(OC)cc21` (configuration not stated): the melting point was 130 to 132 °C.
The same measure for `O=[N+]([O-])c1ccc(O)c(Cl)c1Cl`: 148 to 150 °C; for `CC#CCOc1ccc(S(=O)(=O)NC(COCCBr)C(=O)OC)cc1` (configuration not stated): 45 to 46 °C.
`N#Cc1ccc(-c2ccc(OCC(COc3ccccc3)N(O)C=O)cc2)cc1` (configuration not stated) showed a melting point of 133 to 135 °C.
As to `CCOC(=O)CC[C@H](NC(=O)c1ccc(NCc2cnc3nc(N)nc(N)c3c2)cc1)C(=O)OCC`, the melting point came to 262 °C.
Molecule `Cc1c(I)c(=O)n(-c2cc(C(=O)OC(C)C)c(Cl)cc2F)c(=O)n1C` came in with a melting point of 147 to 150 °C.
For `CC1(C)C(=O)N(Cl)C(C)(C)C(=O)N1Cl`, the melting point lay within 176 to 178 °C.
With `COC(=O)COc1ccc(C(=O)CN(C)C(=O)OCc2ccccc2)cc1OCC(=O)OC`, the melting point was in the range of 56 to 59 °C.
Molecule `Nc1nc2c(s1)CCN(CC=Cc1cccc(C(F)(F)F)c1)CC2` gave a melting point of 102 to 105 °C.
Consider `NNC1=Nc2ccc(Br)cc2C(c2ccccn2)=NC1`, for which the melting point lay within 218 to 228 °C.
In turn, `Cc1ccc(-n2ccc3c(Cl)nnc(Cl)c32)c(C)c1` returned a melting point of 148 to 149 °C.
In turn, `COc1cc2c(cn1)CCC(=CN(C)C)C2=O` came in with a melting point of 102 to 104 °C.
The same measure for `CCCCNC(=O)C(=O)NCCCCCO`: 136 to 137 °C.
`CC(C)(C)OCC(NC(=O)c1ccc2c(Cl)cnc(NC(=N)N)c2c1)C(=O)OC(C)(C)C` (racemic) had a melting point of 215 to 219 °C.
In the case of `O=C(C=Cc1ccccc1[N+](=O)[O-])CC(=O)NC1CC1`, the melting point lay within 133 to 134 °C.
As for `CCOC(=O)C(=C(c1ccc(F)cc1)c1ccc(F)cc1)c1nnn(C(C)(C)C)n1`, the figure is 143 to 144 °C; as for `O=C(O)Cc1ccccc1OCCC(c1ccccc1)(c1ccccc1)c1ccccc1`, 79 to 80 °C; as for `COc1ccc2c(c1)c(=O)oc(=O)n2-c1ccc(OCc2ccccc2)cc1`, 155 °C.
Regarding `CCCOCC1CC2CCC13CN(CCC)CCC31c3cccc(O)c3OC21` (configuration not stated), the melting point fell in the range of 123 to 124 °C.
`CCOC(=O)c1cn(-c2nc(NCc3ccc(OC)cc3)c(Cl)cc2F)c2c(Cl)c(F)c(F)cc2c1=O` came in with a melting point of 168 to 171 °C.
Molecule `Cc1cccc(-n2cc(-c3ccc4c(c3)N(C(=O)CN3CCN(C)CC3)CCO4)nn2)n1` gave a melting point of 132 °C.
